The test system of test [1] is human platelet aggregation by ADP. Description: Determination of platelet aggregation in vitro (by ADP), human platelet rich plasma. The test is classed as cell-based. Conditions: human PRP, n = 3, ADP 0.6-1 μM, 37° C., read-out: Inhibition of platelet aggregation by ADP, IC50, human. The procedure: (§1) Method […] The sodium citrate--supplemented blood was centrifuged at 950 rpm for 10 minutes and 2,000 rpm for 10 minutes respectively at room temperature to obtain platelet rich plasma (PRP) and platelet poor plasma (PPP). PRP was diluted with PPP to adjust the number of platelets to be 500,000/μl. Platelet aggregation measured spectroscopically in accordance with Born's method (Nature 194: 927, 1962) using an aggregometer (HEMA TRACER VI Toa Iyo Denshi). The PRP (250 μl) was incubated at 37° C. for 2 minutes, to which was then added 25 μl of a test drug solution. Two minutes later, 25 μl of an agent for causing agglutination. The effect of the test drug was shown by the inhibition rate of the maximum aggregation rate of the test group against that of the control group. ADP was used in the minimum concentration (0.6-1 μM) capable of obtaining maximum aggregation. Inhibitory effect on platelet aggregation by ADP of the compounds of Working Examples

In test [2] the test system is guinea pig platelet aggregation by ADP. Description: Determination of platelet aggregation in vitro (by ADP), guinea pig platelet rich plasma. The settings on record: Cavia porcellus, guinea pig PRP, n = 3, ADP 0.6-1 μM, 37° C., read-out: Inhibition of platelet aggregation by ADP, IC50, guinea pigs. The test is classed as cell-based. On the procedure:
as §1

Test [3] relates to activated platelets of guinea pigs. Description: Binding experiment in vitro: specific binding of 125I-fibrinogen to activated platelets of guinea pigs. Details: species or system guinea pig. The settings on record: n=3; 125I-fibrinogen 0.1 μM; ADP 5×10^-5 M; 2 hours at room temperature; read-out: IC50 value against the specific binding of 125I-fibrinogen to activated platelets of guinea pigs. On the procedure:
Method Washed platelets were prepared from sodium citrate--supplemented blood of guinea pig, which were suspended in a Hepes Tyrode solution (pH 7.5) to adjust the number of platelets to be 500,000/μl. To 70 μl of this suspension was added 10 μl of an ADP solution (final concentration: 5×10^-5 M), and the mixture was left standing for 15 minutes at room temperature. To the mixture were added a solution of the test drug and 80 μl of a ^125 I-fibrinogen solution (final concentration: 0.1 μM), which was left standing for 2 hours at room temperature. Onto a 20% sucrose buffer solution was overlaid 100 μl of the reaction mixture, which was subjected to centrifuge at 3,000 rpm to separate platelet-adhesive ^125 I-fibrinogen from non-adhesive one. The radioactivity of the platelet-adhesive ^125 I-fibrinogen was determined. From the value obtained from the test groups against specific binding of the control group (processed with the buffer solution), the adhesion inhibiting ratio was determined. Action of the compound of Working Example 1 against the specific binding of ^125 I-fibrinogen to activated platelets of guinea pigs.

Test [4] relates to platelet aggregation caused by ADP. The experiment in a line: Ex vivo platelet aggregation experiment (ADP) after oral administration to guinea pigs. The test is classed as in vivo, guinea pig. The procedure: Method After fasting overnight, guinea pigs were orally administered with a test drug solution (2 ml/kg). Blood was collected from the animals, under anesthesia with pentobarbital, after 1, 4 and 24 hours respectively. By the method described above, PRP was prepared and the platelet aggregation caused by ADP was measured. The rate of inhibition of aggregation was determined by the aggregation rate obtained in the test groups against that obtained in the control. The test drug was administered orally as a solution in distilled water. ADP aggregation inhibiting action by the compound of working Example 1 in guinea pigs

By IC50 is commonly meant the concentration that gives 50% inhibition.

Take `COC(=O)C[C@H]1C(=O)N(CC(=O)O)CCN1C(=O)C(Cc1ccc(O)c(O)c1)NC(=O)c1ccc(C(=N)N)cc1` (mixture of isomers) [Working Example 24]: the results for the IC50 in test [1] and in test [2] were 24 nM and 46 nM, respectively.

Take `COC(=O)C[C@H]1C(=O)N(CC(=O)O)CCN1C(=O)[C@H](Cc1ccc(O)cc1)NC(=O)c1ccc(C(=N)N)cc1.Cl` [Working Example 1, (S)-4-(4-Amidinobenzoyl-L-Tyrosyl)-3-Methoxycarbonylmethyl-2-Oxopiperazine-1-Acetic Acid Hydrochloride]: the results for the IC50 in test [3], in test [1] and in test [2] were 2.7 nM, 20 nM and 37 nM, respectively. The “ADP aggregation inhibition rate” value was 100% in test [4] (3 mg/kg p.o., after 1 hour, n=4); 100% in test [4] (3 mg/kg p.o., after 4 hour, n=4); 100% in test [4] (3 mg/kg p.o., after 24 hour, n=3).

`COC(=O)C[C@H]1C(=O)N(CC(=O)O)CCN1C(=O)[C@H](Cc1ccc(OC)cc1)NC(=O)c1ccc(C(=N)N)cc1` [Working Example 3, (S)-4-(4-Amidinobenzoyl-O-Methyl-L-Tyrosyl)-3-Methoxycarbonylmethyl-2-Oxopiperazine-1 -Acetic Acid]: the IC50 in test [1] is 10 nM; in test [2] it was 15 nM. Also, the “ADP aggregation inhibition rate” value is reported as 95% in test [4] (1 mg/kg p.o., after 1 hour, n=6) and 100% in test [4] (1 mg/kg p.o., after 4 hour, n=6).

`CCOc1ccc(C[C@H](NC(=O)c2ccc(C(=N)N)cc2)C(=O)N2CCN(CC(=O)O)C(=O)[C@@H]2CC(=O)OC)cc1` [Working Example 4, (S)-4-(4-amidinobenzoyl-O-ethyl-L-tyrosyl)-3-methoxycarbonylmethyl-2-oxopiperazine-1-acetic acid]: the IC50 in test [2] was determined as 120 nM.

With `CCCOc1ccc(C[C@H](NC(=O)c2ccc(C(=N)N)cc2)C(=O)N2CCN(CC(=O)O)C(=O)[C@@H]2CC(=O)OC)cc1` [Working Example 5], the IC50 was determined as 40 nM in test [1] and 34 nM in test [2].

As for `C=CCOc1ccc(C[C@H](NC(=O)c2ccc(C(=N)N)cc2)C(=O)N2CCN(CC(=O)O)C(=O)[C@@H]2CC(=O)OC)cc1` [Working Example 18], the values for the IC50 in test [1] and in test [2] were 20 nM and 26 nM, respectively.

For `COC(=O)C[C@H]1C(=O)N(CC(=O)O)CCN1C(=O)[C@H](Cc1ccc(F)cc1)NC(=O)c1ccc(C(=N)N)cc1` [Working Example 21], the IC50 in test [1] stood at 26 nM; in test [2], 38 nM.

For `COC(=O)C[C@H]1C(=O)N(CC(=O)O)CCN1C(=O)[C@H](Cc1ccc(O)c(F)c1)NC(=O)c1ccc(C(=N)N)cc1` [Working Example 22], the figures for the IC50 in test [1] and in test [2] were 18 nM and 47 nM, respectively.

As for `COC(=O)C[C@H]1C(=O)N(CC(=O)O)CCN1C(=O)[C@H](Cc1ccc(O)cc1F)NC(=O)c1ccc(C(=N)N)cc1` [Working Example 23], the IC50 in test [1] came out at 17 nM; in test [2], 38 nM.

For the molecule `COC(=O)C[C@H]1C(=O)N(CC(=O)O)CCN1C(=O)[C@H](Cc1ccc(OC)cc1)NC(=O)c1ccc(CCN)cc1` [Working Example 31], the IC50 in test [1] was 12 nM; in test [2], 18 nM.

Source of the values: patent US5550131A, “2-piperazinone compounds and their use” (Takeda Chemical Industries, Ltd., priority 1993, dated 1996).
